In PubChem BioAssay (NCI) one finds GI50 and TGI data, which are given here for 8 compounds.

Assay in all cases: inhibition of tumour cell growth, NCI panel, 48 h
Experiment [1] deals with SR leukemia.
The subject of experiment [2] is RPMI-8226 leukemia.
The test system of experiment [3] is MALME-3M melanoma.
The test system of experiment [4] is SF-539 CNS.
For experiment [5], the system named is HT29 colon.
The test system of experiment [6] is SN12C renal.
In experiment [7] the test system is HCT-15 colon.
In experiment [8] the test system is RXF 393 renal.
Experiment [9] deals with MCF7 breast.
Experiment [10] has as its system CAKI-1 renal.

Values joined by “and” are separate entries in the source; they are usually repeats but may differ in a detail not shown here. Equal values may be shown once.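 In this assay, cells in 96-well plates receive the compound at five concentrations for 48 hours. Endpoints are linearly interpolated between the surrounding concentrations. At the GI50, growth is halved. The concentration for full growth arrest is given as TGI.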 Some results are limits rather than exact numbers.

In the case of `Oc1c(CN2CCN(c3ccccc3F)CC2)cc(Br)c2cccnc12`, the GI50 in experiment [1] was 419 nM; in experiment [2], 791 nM; in experiment [3], 1890 nM; in experiment [4], 1020 nM; in experiment [5], 11300 nM; in experiment [6], 987 nM. The GI50 was 143 nM in [7], 2050 nM in experiment [8], 473 nM in [9] and 376 nM in experiment [10]. Besides, the TGI in experiment [1] was 5170 nM; in experiment [2], 15600 nM; in experiment [3], 9460 nM; in experiment [4], 5600 nM; in experiment [5], 40500 nM; in [6] it was 20500 nM. In addition, the TGI in experiment [7] is over 100000 nM; in experiment [8] it was 19100 nM; in experiment [9], 12100 nM; in experiment [10] it was 9260 nM.

As for `Nc1ccc(-c2ccc(-c3nc4cc(Cl)c(Cl)cc4[nH]3)cc2)cc1`, the GI50 was 181 nM in [1]; 1850 nM in experiment [2]; 8020 nM in experiment [3]; 1380 nM in [4]; 1420 nM in [5]; 17900 nM in experiment [6]. The GI50 is 406 nM in experiment [7], 5710 nM in [8], 377 nM in experiment [9] and 353 nM in experiment [10]. For the same compound, the TGI in experiment [1] was 45200 nM; in [2] it was 38400 nM; in experiment [3] it was over 63400 nM; in experiment [4], over 51500 nM; in [5], over 100000 nM; in experiment [6] it was over 66700 nM. For the same compound, the results for the TGI in experiment [7], in experiment [8] and in experiment [9] were over 100000 nM, 38800 nM and over 100000 nM, respectively.

As to `CNC(=O)CN1CCC(Oc2cc3c(Nc4cccc(Cl)c4F)ncnc3cc2OC)CC1`, the GI50 is 21100 nM and 2190 nM in [1]; 32200 nM and > 10000 nM in experiment [2]; 16100 nM and > 10000 nM in experiment [3]; 13500 nM and > 5940 nM in [4]; 11600 nM and > 7060 nM in [5]; 2960 nM and 3420 nM in experiment [6]. Also, the GI50 was 11200 nM and > 5170 nM in experiment [7]; 7350 nM and 2370 nM in [8]; 13800 nM and > 5000 nM in [9]; 216 nM and 1110 nM in experiment [10]. Further, the TGI in experiment [1] was > 70100 nM and 8970 nM; in experiment [2], over 100000 nM; in experiment [3] it was over 58000 nM; in experiment [4], 33400 nM and > 10000 nM; in experiment [5] it was 32600 nM and > 10000 nM; in [6] it was over 100000 nM. Also, the TGI was 67600 nM and > 10000 nM in experiment [7]; 27300 nM and > 6920 nM in experiment [8]; over 74500 nM in [9]; 10400 nM and > 10000 nM in experiment [10].

`CCN1CCN(c2ccc(Nc3ncc4ccc5ncn(C(C)C)c5c4n3)nc2)CC1`: the GI50 in [1] was 40.2 nM; in experiment [2], under 32.4 nM; in experiment [3] it was 134 nM; in experiment [4], 171 nM; in experiment [5], 48.9 nM; in experiment [6], 139 nM. In addition, the GI50 in experiment [7] was 63.6 nM; in experiment [8], 76.5 nM; in experiment [9], under 10.9 nM; in experiment [10], 25 nM. Further, the TGI in experiment [2] came to 1450 nM; in [3], 1690 nM; in experiment [4], 394 nM; in [5], 15500 nM; in [6] it was 17900 nM; in experiment [7] it was 1160 nM. Besides, the TGI in experiment [8] was 248 nM; in experiment [9], 848 nM; in experiment [10], 520 nM.

Take `Cn1c(=O)c2[nH]c(CCCCc3nc4c([nH]3)c(=O)n(C)c(=S)n4C)nc2n(C)c1=S`: the TGI in [1], in experiment [2], in experiment [3], in experiment [4], in experiment [5] and in experiment [6] was over 100000 nM throughout. For the same compound, the TGI in experiment [7], in [8], in experiment [9] and in experiment [10] was over 100000 nM each time.

For the compound `Cc1nc2sc(C(=O)Nc3cccc(Br)c3)c(N)c2cc1C(O)c1ccccc1` (configuration not stated), the GI50 in experiment [1] was 301 nM; in [2], 511 nM; in experiment [3] it was 761 nM; in experiment [4], 558 nM; in experiment [5] it was 393 nM; in experiment [6], 894 nM. For the same compound, the GI50 was 403 nM in [7], 483 nM in [8], 372 nM in experiment [9] and 632 nM in experiment [10]. Besides, the TGI in [1] is over 37300 nM; in [2] it was over 23100 nM; in experiment [3], 22300 nM; in experiment [4], 5400 nM; in experiment [5], over 82500 nM; in [6] it was 13300 nM. In addition, the TGI was 17300 nM in experiment [7], 10900 nM in experiment [8], 17000 nM in experiment [9] and 15600 nM in [10].

Turning to `Nc1nc(-c2cccs2)cs1`, the TGI in [1], in experiment [2], in [3], in experiment [4], in [5] and in [6] was over 100000 nM each time. Moreover, the TGI in [7], in [8], in [9] and in experiment [10] was over 100000 nM in each case.

With `CC[CH2][Sn]([CH2]CC)([O]C(=O)Cc1ccc(F)cc1)[O][Sn]([CH2]CC)([CH2]CC)[O]C(=O)Cc1ccc(F)cc1`, the GI50 is 78.1 nM in experiment [1]; 38.2 nM in [2]; 102 nM in [3]; 274 nM in [4]; 728 nM in experiment [5]; 262 nM in experiment [6]. Further, the GI50 in experiment [7] was 218 nM; in [8], 28.6 nM; in [9], 105 nM; in experiment [10], 110 nM. Moreover, the TGI in experiment [1] is 5030 nM; in experiment [3], 291 nM; in experiment [4], 769 nM; in [5], 2020 nM; in [6], 1000 nM; in [7] it was 658 nM. The results for the TGI in experiment [8], in experiment [9] and in experiment [10] were 126 nM, 1020 nM and 481 nM, respectively.
